{
  "source": "ChEMBL document CHEMBL5107957",
  "about": "“Trends in targeting Bcl-2 anti-apoptotic proteins for cancer treatment” (Eur J Med Chem, 2022)",
  "key": {"MOLT-4": {"tested_on": "MOLT-4", "experiment": "Cytotoxicity against human MOLT-4 cells assessed as cell growth inhibition incubated for 72 hrs", "format": "functional, cell-based", "conditions": "MOLT-4, 72 h"}, "[1]": {"experiment": "Cytotoxicity against human platelets assessed as cell growth inhibition incubated for 24 hrs", "format": "toxicity, cell-based, Platelet"}, "[2]": {"target": "T1, Apoptosis regulator Bcl-2 (Homo sapiens, UniProt P10415)", "T1 sequence (P10415 whole entry)": "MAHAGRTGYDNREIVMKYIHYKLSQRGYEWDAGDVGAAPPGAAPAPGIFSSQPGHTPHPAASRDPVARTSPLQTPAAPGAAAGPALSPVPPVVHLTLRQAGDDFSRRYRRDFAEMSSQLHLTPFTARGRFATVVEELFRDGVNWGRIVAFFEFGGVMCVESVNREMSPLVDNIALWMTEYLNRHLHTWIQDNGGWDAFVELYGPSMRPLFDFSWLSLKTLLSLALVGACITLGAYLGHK", "experiment": "Binding affinity to Bcl-2 (unknown origin) assessed as inhibition constant"}, "Bcl-2-like protein 1 [3]": {"target": "T2, Bcl-2-like protein 1 (Homo sapiens, UniProt Q07817)", "T2 sequence (Q07817 whole entry)": "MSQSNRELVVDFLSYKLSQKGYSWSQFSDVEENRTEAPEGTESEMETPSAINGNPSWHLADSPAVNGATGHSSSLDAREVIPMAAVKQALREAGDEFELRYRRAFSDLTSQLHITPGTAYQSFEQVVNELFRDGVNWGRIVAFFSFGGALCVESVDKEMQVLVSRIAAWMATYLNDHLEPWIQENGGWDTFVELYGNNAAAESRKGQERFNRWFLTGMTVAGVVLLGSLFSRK", "experiment": "Binding affinity to Bcl-xL (unknown origin) assessed as inhibition constant"}, "[4]": {"experiment": "Selectivity ratio of IC50 for human platelets to IC50 for human MOLT-4 cells", "format": "toxicity", "conditions": "human platelets and human MOLT-4 cells"}, "[5]": {"target": "Protein cereblon/Bcl-2-like protein 1 (Homo sapiens) (UniProt Q07817+Q96SW2)", "sequence (Q07817 whole entry, looked up)": "as the sequence (Q07817 whole entry) above", "sequence (Q96SW2 whole entry, looked up)": "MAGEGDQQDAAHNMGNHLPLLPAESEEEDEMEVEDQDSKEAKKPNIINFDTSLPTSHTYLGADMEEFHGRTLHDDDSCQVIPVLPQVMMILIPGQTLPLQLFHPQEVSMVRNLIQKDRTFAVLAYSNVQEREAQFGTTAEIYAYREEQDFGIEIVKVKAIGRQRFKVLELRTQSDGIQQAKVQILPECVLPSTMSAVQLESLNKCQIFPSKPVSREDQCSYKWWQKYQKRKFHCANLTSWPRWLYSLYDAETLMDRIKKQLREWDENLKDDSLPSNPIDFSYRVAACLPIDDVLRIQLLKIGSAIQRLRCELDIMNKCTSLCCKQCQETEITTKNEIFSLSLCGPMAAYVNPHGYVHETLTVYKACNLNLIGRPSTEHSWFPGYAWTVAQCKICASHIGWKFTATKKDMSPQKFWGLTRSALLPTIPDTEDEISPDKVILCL", "experiment": "PROTAC activity at CRBN/Bcl-xL in human MOLT-4 cells assessed as induction of Bcl-xL degradation at 100 nM incubated for 16 hrs by Western blot assay relative to control", "format": "cell-based"}, "[6]": {"target": "T1, Apoptosis regulator Bcl-2", "experiment": "Displacement of synthetic peptide tracer conjugated to fluorescein isothiocyanate from C-terminal 6xHis-tagged Bcl-2 (1 to 204 residues) (unknown origin) preincubated for 1 hr followed by tracer addition measured after 20 mins by fluorescence polarization assay"}, "Bcl-2-like protein 1 [7]": {"target": "T2, Bcl-2-like protein 1", "experiment": "Displacement of synthetic peptide tracer conjugated to fluorescein isothiocyanate from C-terminal 6xHis-tagged Bcl-xL (1 to 209 residues) (unknown origin) preincubated for 1 hr followed by tracer addition measured after 20 mins by fluorescence polarization assay"}, "[8]": {"experiment": "Solubility of the compound in aqueous buffer at physiological pH", "format": "physicochemical"}, "Bcl-2-like protein 1 [9]": {"target": "T2, Bcl-2-like protein 1", "experiment": "Binding affinity to Bcl-xL (unknown origin) assessed as inhibition constant by fluorescence polarization assay"}, "[10]": {"target": "T1, Apoptosis regulator Bcl-2", "experiment": "Binding affinity to human Bcl-2 assessed as inhibition constant incubated for 15 mins by competition fluorescence polarization assay"}, "Bcl-2-like protein 1 [11]": {"target": "T2, Bcl-2-like protein 1", "experiment": "Binding affinity to human Bcl-xL assessed as inhibition constant incubated for 15 mins by competition fluorescence polarization assay"}, "[12]": {"target": "T3, Induced myeloid leukemia cell differentiation protein Mcl-1 (Homo sapiens, UniProt Q07820)", "T3 sequence (Q07820 whole entry)": "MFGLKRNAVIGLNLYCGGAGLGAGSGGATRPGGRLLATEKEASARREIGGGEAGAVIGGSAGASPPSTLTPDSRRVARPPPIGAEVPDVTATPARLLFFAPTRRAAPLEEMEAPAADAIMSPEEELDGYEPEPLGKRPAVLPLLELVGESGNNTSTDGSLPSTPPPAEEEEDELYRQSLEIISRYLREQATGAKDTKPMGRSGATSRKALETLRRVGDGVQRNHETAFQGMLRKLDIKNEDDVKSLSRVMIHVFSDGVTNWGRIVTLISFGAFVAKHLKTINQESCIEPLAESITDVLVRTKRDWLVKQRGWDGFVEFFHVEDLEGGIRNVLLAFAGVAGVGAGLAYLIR", "experiment": "Binding affinity to human Mcl-1 assessed as inhibition constant incubated for 15 mins by competition fluorescence polarization assay"}, "[13]": {"target": "T1, Apoptosis regulator Bcl-2", "experiment": "Binding affinity to Bcl-2 (unknown origin) assessed as inhibition constant using 5-FAM-QEDIIRNIARHLAQVGDSMDRSIPPG as substrate"}, "[14]": {"target": "T3, Induced myeloid leukemia cell differentiation protein Mcl-1", "experiment": "Binding affinity to Mcl-1 (unknown origin) assessed as inhibition constant using 5-FAM-QEDIIRNIARHLAQVGDSMDRSIPPG as substrate"}, "[15]": {"target": "T4, von Hippel-Lindau disease tumor suppressor/Bcl-2-like protein 1 (Homo sapiens) (UniProt Q07817+P40337)", "T4 sequence (P40337 whole entry, looked up)": "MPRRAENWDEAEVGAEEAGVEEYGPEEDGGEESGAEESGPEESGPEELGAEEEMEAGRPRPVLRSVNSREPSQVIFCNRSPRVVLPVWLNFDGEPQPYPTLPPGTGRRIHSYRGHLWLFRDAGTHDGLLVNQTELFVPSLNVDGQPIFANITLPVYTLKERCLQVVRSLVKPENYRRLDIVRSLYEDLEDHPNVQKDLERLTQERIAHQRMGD", "T4 sequence (Q07817 whole entry, looked up)": "as the sequence (Q07817 whole entry) above", "experiment": "PROTAC activity at VHL/Bcl-xL in human THP-1 cells assessed as induction of Bcl-xL degradation incubated for 24 hrs by Western blot assay relative to control", "format": "cell-based"}, "[16]": {"target": "T5, von Hippel-Lindau disease tumor suppressor/Bcl-2-like protein 1 (Homo sapiens, UniProt P40337+Q07817)", "T5 sequence (Q07817 whole entry)": "as above", "T5 sequence (P40337 whole entry)": "as the sequence (P40337 whole entry, looked up) above", "experiment": "PROTAC activity at VHL/Bcl-xL in human THP-1 cells assessed as induction of Bcl-xL degradation incubated for 24 hrs by Western blot assay", "format": "cell-based"}, "[17]": {"target": "T5, von Hippel-Lindau disease tumor suppressor/Bcl-2-like protein 1", "experiment": "PROTAC activity at VHL/Bcl-xL in human MOLT-4 cells assessed as induction of Bcl-xL degradation incubated for 16 hrs by immunoblot assay", "format": "cell-based"}, "[18]": {"target": "T4, von Hippel-Lindau disease tumor suppressor/Bcl-2-like protein 1 (Homo sapiens)", "experiment": "PROTAC activity at VHL/Bcl-xL in human MOLT-4 cells assessed as induction of Bcl-xL degradation incubated for 16 hrs by immunoblot assay relative to control", "format": "cell-based"}, "[19]": {"experiment": "Binding affinity to recombinant Bcl-2 V113G mutant (unknown origin) using peptide probe incubated for 2 hrs by fluorescence based assay", "design": "species or system Homo sapiens"}, "[20]": {"experiment": "Binding affinity to recombinant Bcl-2 D129L mutant (unknown origin) using peptide probe incubated for 2 hrs by fluorescence based assay", "design": "species or system Homo sapiens"}},
  "data": [
    {"compound": "CN(C)CC#Cc1ccc(OCCCc2sc(N3CCc4cccc(C(=O)Nc5nc6ccccc6s5)c4C3)nc2C(=O)O)c(F)c1", "note": "[A-1155463]", "values": [
      {"measurement": "IC50", "setting": "MOLT-4", "value": 6.2, "unit": "nM"},
      {"measurement": "IC50 at 24 h", "setting": "[1]", "value": 7.1, "unit": "nM"}
    ]},
    {"compound": "Cc1c(S(C)(=O)=O)c(-c2cc(F)cc(N3CCN(c4ccc(NS(=O)(=O)c5ccc(N[C@H](CCN6CCC(C(=O)OCCCP(=O)(O)O)CC6)CSc6ccccc6)c(S(=O)(=O)C(F)(F)F)c5)cc4)CC3)c2)c(-c2ccc(Cl)cc2)n1C(C)C", "note": "[PELCITOCLAX]", "values": [
      {"measurement": "Ki", "setting": "[2]", "value": "< 1", "unit": "nM"},
      {"measurement": "Ki", "setting": "Bcl-2-like protein 1 [3]", "value": "< 1", "unit": "nM"}
    ]},
    {"compound": "O=C1CCC(N2C(=O)c3cccc(NCCOCCOCc4cn(CCCC(=O)N5CCN(CC#Cc6ccc(OCCCc7sc(N8CCc9cccc(C(=O)Nc%10nc%11ccccc%11s%10)c9C8)nc7C(=O)O)c(F)c6)CC5)nn4)c3C2=O)C(=O)N1", "note": "(stereo not drawn)", "values": [
      {"measurement": "selectivity ratio", "setting": "[4]", "value": 22},
      {"measurement": "Emax", "setting": "[5]", "value": 85, "unit": "%"},
      {"measurement": "IC50", "setting": "MOLT-4", "value": 51, "unit": "nM"},
      {"measurement": "IC50 at 24 h", "setting": "[1]", "value": 1140, "unit": "nM"}
    ]},
    {"compound": "CN(CCO)CC[C@H](CSc1ccccc1)Nc1ccc(S(=O)(=O)NC(=O)c2ccc(N3CCC([C@@H](O)c4ccccc4-c4ccc(Cl)cc4)CC3)cc2)cc1S(=O)(=O)C(F)(F)F", "values": [
      {"measurement": "IC50", "setting": "[6]", "value": 3.9, "unit": "nM"},
      {"measurement": "IC50", "setting": "Bcl-2-like protein 1 [7]", "value": 4.5, "unit": "nM"},
      {"measurement": "solubility", "setting": "[8]", "value": "< 1", "unit": "µg/mL"}
    ]},
    {"compound": "Cc1c(S(C)(=O)=O)c(-c2cc(F)cc(N3CCN(c4ccc(NS(=O)(=O)c5ccc(N[C@H](CCN6CCC(O)CC6)CSc6ccccc6)c(S(=O)(=O)C(F)(F)F)c5)cc4)CC3)c2)c(-c2ccc(Cl)cc2)n1C(C)C", "values": [
      {"measurement": "Ki", "setting": "Bcl-2-like protein 1 [9]", "value": "< 1", "unit": "nM"}
    ]},
    {"compound": "CCN(CC)C[C@@H](O)CNc1ccc(NC[C@H]2CO2)c2c1C(=O)c1ccccc1C2=O", "values": [
      {"measurement": "Ki", "setting": "[10]", "value": 3.3, "unit": "nM"},
      {"measurement": "Ki", "setting": "Bcl-2-like protein 1 [11]", "value": "> 500", "unit": "nM"},
      {"measurement": "Ki", "setting": "[12]", "value": "> 550", "unit": "nM"}
    ]},
    {"compound": "N#Cc1ccc(CN2Cc3c(cc(Br)c(OCc4ccc(-c5ccccc5)cc4)c3Br)C[C@H]2C(=O)NS(=O)(=O)c2ccc(Cl)c([N+](=O)[O-])c2)cc1", "values": [
      {"measurement": "Ki", "setting": "[13]", "value": 0.45, "unit": "nM"},
      {"measurement": "Ki", "setting": "[14]", "value": 0.35, "unit": "nM"}
    ]},
    {"compound": "Cc1ncsc1-c1ccc(CNC(=O)[C@@H]2C[C@@H](O)CN2C(=O)[C@@H](NC(=O)CCOCCOCCOCCOCCOCCOCC#Cc2ccc(OCCCc3sc(N4CCc5cccc(C(=O)Nc6nc7ccccc7s6)c5C4)nc3C(=O)O)cc2)C(C)(C)C)cc1", "values": [
      {"measurement": "Emax", "setting": "[15]", "value": 76, "unit": "%"},
      {"measurement": "EC50", "setting": "[16]", "value": 4.8, "unit": "nM"}
    ]},
    {"compound": "Cc1ncsc1-c1ccc([C@H](C)NC(=O)[C@@H]2C[C@@H](O)CN2C(=O)[C@@H](NC(=O)CCCCCC(=O)N2CCN(CC[C@H](CSc3ccccc3)Nc3ccc(S(=O)(=O)NC(=O)c4ccc(N5CCN(CC6=C(c7ccc(Cl)cc7)CCC(C)(C)C6)CC5)cc4)cc3S(=O)(=O)C(F)(F)F)CC2)C(C)(C)C)cc1", "note": "[DT-2216]", "values": [
      {"measurement": "EC50", "setting": "[17]", "value": 63, "unit": "nM"},
      {"measurement": "Emax", "setting": "[18]", "value": 90.8, "unit": "%"}
    ]},
    {"compound": "Cc1c(N(C(=O)c2cc(-c3cc(Cl)ccc3C(=O)N3Cc4ccccc4C[C@H]3CN3CCOCC3)n(C)c2C)c2ccc(O)cc2)cc(C#N)n1C", "note": "[VOB-560]", "values": [
      {"measurement": "Ki", "setting": "[19]", "value": 9.6, "unit": "nM"},
      {"measurement": "Ki", "setting": "[20]", "value": 1, "unit": "nM"}
    ]}
  ]
}
